From article PMC5877410 (Journal of medicinal chemistry, 2017)
Values joined by “and” are separate entries in the source; they are usually repeats but may differ in a detail not shown here. Equal values may be shown once. Read-outs that look alike come from different tables or passages of the source.

Tests used:
NAP1 spores = assay: Phase-contrast microscope spore count assay; format: cell-based, Clostridium difficile
Caco-2 monolayers = settings: cited from earlier work
ATCC strain 630 = settings: murine infection model, strain ATCC 630; cited from earlier work
NAP1 C. difficile spores = assay: Optical density; format: cell-based, Clostridium difficile
Caco-2 cell monolayer [1] = system: Caco-2 cell monolayer
Caco-2 cell monolayer [2] = assay: Caco-2 cell monolayer bidirectional permeability assay; settings: 10 μM
[3] = molecular target: C. difficile spore germination; format: cell-based, Clostridium difficile; settings: inhibitor evaluated at 0.2 mM, varying TCA; average of three experiments ± SEM
[4] = 10 μM compound, 2000 μM TCA, after 20 min, mean ± SD, N = 3

## COC(=O)CC[C@@H](C)[C@H]1CC[C@H]2[C@@H]3[C@H](O)C[C@@H]4C[C@H](O)CC[C@]4(C)[C@H]3CC[C@]12C [2a, methyl (R)-4-((3R,5S,7R,8R,9S,10S,13R,14S,17R)-3,7-dihydroxy-10,13-dimethylhexadecahydro-1H-cyclopenta[a]phenanthren-17-yl)pentanoate, reference compound]
NAP1 spores; [4]
  Percent Spore Germination t20: 71 ± 1%

## CO[C@@H]1CC[C@@]2(C)[C@@H](C1)C[C@H](OC)[C@@H]1[C@@H]2CC[C@]2(C)[C@@H]([C@H](C)CCC(=O)O)CC[C@@H]12 [6b, (R)-4-((3R,5S,7S,8R,9S,10S,13R,14S,17R)-3,7-Dimethoxy-10,13-dimethylhexadecahydro-1H-cyclopenta[a]-phenanthren-17-yl)pentanoic Acid]
NAP1 spores; [4]
  Percent Spore Germination t20: 71 ± 2%

## CO[C@@H]1CC[C@@]2(C)[C@@H](C1)C[C@H](OS(=O)(=O)[O-])[C@@H]1[C@@H]2CC[C@]2(C)[C@@H]([C@H](C)CCC(=O)N3CCCC3)CC[C@@H]12.[Na+] [21b, Sodium (3R,5S,7S,8R,9S,10S,13R,14S,17R)-3-Methoxy-10,13-dimethyl-17-((R)-5-oxo-5-(pyrrolidin-1-yl)pentan-2-yl)-hexadecahydro-1H-cyclopenta[a]phenanthren-7-yl Sulfate]
NAP1 spores; [4]
  Percent Spore Germination t20: 30 ± 6%
NAP1 spores; 10 μM compound, 2000 μM TCA, time 0, mean ± SD, N = 3
  Percent Spore Germination t0: 18 ± 2%
NAP1 spores; 50 μM compound, 2000 μM TCA (Table S1)
  Inhibition of spore germination at 50 μM: complete inhibition of spore germination

## C[C@H](CCC(=O)NCCS(=O)(=O)O)[C@H]1CC[C@H]2[C@@H]3[C@H](O)C[C@@H]4C[C@H](O)CC[C@]4(C)[C@H]3C[C@H](O)[C@]12C [TCA, taurocholic acid]
Caco-2 monolayers
  transport ratio: greater than 10

## C[C@H](CCC(=O)Nc1cccc(S(=O)(=O)O)c1)[C@H]1CC[C@H]2[C@@H]3[C@H](O)C[C@@H]4C[C@H](O)CC[C@]4(C)[C@H]3C[C@H](O)[C@]12C [compound 3, reference compound]
ATCC strain 630
  Effect on CDI symptoms: eradicated CDI symptoms
NAP1 spores; [4]
  Percent Spore Germination t20: 74 ± 2%

## sodium 5-((R)-3-((3R,5R,7R,8R,9S,10S,13R,14S,17R)-7-hydroxy-3-methoxy-10,13-dimethyl-hexadecahydro-1H-cyclopenta[a]phenanthren-17-yl)butyl)-tetrazol-1-ide [37a]
NAP1 C. difficile spores
  Concentration Required for Complete Inhibition: 5 µM
Caco-2 cell monolayer [1]
  mean permeability A–B: 10.7 10^−6 cm/s
  mean permeability B–A: 1.9 10^−6 cm/s
NAP1 spores
  Percent Spore Germination t0: 20% and 16 ± 4%
  Percent Spore Germination t20: 25%
Caco-2 cell monolayer [2]
  fold greater permeability in the A–B direction than C7-sulfated analogue 38a: over 25 times
[3]
  Ki: 17.9 ± 4.6 µM

## sodium 5-((R)-3-((3R,5S,7R,8R,9S,10S,13R,14S,17R)-3,7-dihydroxy-10,13-dimethylhexadecahydro-1H-cyclopenta[a]phenanthren-17-yl)butyl)tetrazol-1-ide [35a]
NAP1 C. difficile spores
  Concentration Required for Complete Inhibition: 10 µM
NAP1 spores
  Percent Spore Germination Relative to control: 12% and 12 ± 6%
  Percent Spore Germination t0: 15 ± 6%
  Percent Spore Germination t20: 22 ± 6%

## sodium 5-((R)-3-((3R,5S,7R,8R,9S,10S,13R,14S,17R)-3-methoxy-10,13-dimethyl-7-(sulfonatooxy)hexadecahydro-1H-cyclopenta[a]phenanthren-17-yl)-butyl)tetrazol-1-ide [38a]
Caco-2 cell monolayer [1]
  mean permeability A–B: 0.4 10^−6 cm/s
  mean permeability B–A: 0.4 10^−6 cm/s
NAP1 spores
  Percent Spore Germination t0: 20 ± 11%
  Percent Spore Germination t20: 48 ± 11%
